This note sets out measurements from US8067445B2, “N,N-disubstituted aminoalkylbiphenyl antagonists of prostaglandin D2 receptors” (Panmira Pharmaceuticals, LLC, priority 2008, dated 2011).

The target of one assay is T1, human DP2 receptor (Homo sapiens, UniProt Q9Y5Y4).
T1 construct: expressed in transfected cells
T1 sequence (Q9Y5Y4 1-395): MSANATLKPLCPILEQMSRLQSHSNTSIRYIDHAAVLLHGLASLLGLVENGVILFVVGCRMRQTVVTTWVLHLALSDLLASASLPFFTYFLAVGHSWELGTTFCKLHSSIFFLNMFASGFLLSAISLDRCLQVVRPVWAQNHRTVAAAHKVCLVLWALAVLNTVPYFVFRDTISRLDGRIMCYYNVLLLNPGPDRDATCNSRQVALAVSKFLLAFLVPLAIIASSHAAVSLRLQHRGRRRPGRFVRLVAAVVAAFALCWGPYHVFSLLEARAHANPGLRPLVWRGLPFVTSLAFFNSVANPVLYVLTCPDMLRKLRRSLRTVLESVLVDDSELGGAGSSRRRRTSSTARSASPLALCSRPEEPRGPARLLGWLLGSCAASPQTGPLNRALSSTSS
In words: DP2/CRTH2 radioligand binding assay ([3H]PGD2). As to conditions: [3H]PGD2 binding, membranes of HEK293 cells expressing human DP2; read-out: hDP2. The procedure, abridged: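 Membranes from HEK293 cells stably expressing recombinant human DP2 incubated 60 min at room temperature with 1 nM [3H]PGD2 and compound in pH 7.4 Hepes/MnCl2/EDTA buffer, ± 0.2% human serum albumin. Bound radioactivity measured after filtration; non-specific binding defined with 10 μM PGD2. IC50 from titration curves.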

A further assay addresses T2, human DP1 receptor (Homo sapiens, UniProt Q13258).
T2 construct: tissue Biological Specialty Corporation; host or cells: human platelet membranes
T2 sequence (Q13258 1-359): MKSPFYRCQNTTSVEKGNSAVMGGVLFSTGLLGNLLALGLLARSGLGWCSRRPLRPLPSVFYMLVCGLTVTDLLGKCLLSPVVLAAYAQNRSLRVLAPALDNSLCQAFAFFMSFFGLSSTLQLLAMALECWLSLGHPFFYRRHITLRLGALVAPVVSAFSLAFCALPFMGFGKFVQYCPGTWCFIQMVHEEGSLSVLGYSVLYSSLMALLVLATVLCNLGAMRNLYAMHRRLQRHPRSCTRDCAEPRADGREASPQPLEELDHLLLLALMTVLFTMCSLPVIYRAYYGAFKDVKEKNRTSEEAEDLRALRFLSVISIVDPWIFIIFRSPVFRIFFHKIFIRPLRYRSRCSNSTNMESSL
In words: DP1 radioligand binding assay ([3H]BWA868C, platelet membranes). As to conditions: [3H]BWA868C binding, human platelet membranes; read-out: hDP1. As for the experimental part: The ability of a compound to bind to the human DPI receptor was evaluated via a radioligand membrane binding assay using the DP1 selective synthetic ligand [^311]BWA868C. Packed human platelets (Biological Specialty Corporation), were resuspended in 6 volumes of Hepes/HBSS buffer (10 mM Hepes, 1 mM DTT in Hanks Balanced Salt Solution (HBSS)), lysed and centrifuged at 75,000×g to pellet the membranes. Membranes were resuspended in Hepes/HBSS buffer to approximately 12 mg protein/ml. Membranes (20 μg protein/well) are incubated in 96-well plates with 2 nM [^3H]BWA868C and test compound in Assay Buffer (50 mM Hepes, 10 mM MnCl2, 1 mM EDTA, plus or minus 0.2% human serum albumin, pH 7.4) for 60 minutes at room temperature. The reactions are terminated by rapid filtration through Whatman GF/C glass fibre filter plates. The filter plates were pre-soaked in 0.33% polyethylenimine for 30 minutes at room temperature then washed in Wash Buffer (50 mM Hepes, 0.5 M NaCl pH 7.4) prior to harvesting. After harvesting, the filter plates are washed 3 times with 1 ml cold Wash Buffer then dried. Scintillant is then added to the plates and the radioactivity retained on the filters is determined on a Packard TopCount (Perkin Elmer). Specific binding is determined as total radioactive binding minus non-specific binding in the presence of 10 μM BW A868C. IC50s were determined using GraphPad prism analysis of drug titration curves.

With `COc1ccc(CC(=O)O)cc1-c1ccc(C(F)(F)F)cc1CN(C(C)=O)[C@@H]1c2ccccc2C[C@@H]1O` [Compound 1-15, (2′-{[Acetyl-((1R,2S)-2-hydroxy-indan-1-yl)-amino]-methyl}-6-methoxy-4′-trifluoromethyl-biphenyl-3-yl)-acetic acid], the IC50 on human DP2 receptor and on human DP1 receptor was 1000 to 30000 nM in each case.

`COc1ccc(CC(=O)O)cc1-c1ccc(C(F)(F)F)cc1CN(C(C)=O)[C@@H]1c2ccccc2C[C@@H]1OC` [Compound 1-16, (2′-{[Acetyl-((1R,2S)-2-methoxy-indan-1-yl)-amino]-methyl}-6-methoxy-4′-trifluoromethyl-biphenyl-3-yl)-acetic acid]: the IC50 at human DP2 receptor and at human DP1 receptor was 1000 to 30000 nM each time.

For `CCN(C(C)=O)C(C)c1cc(C(F)(F)F)ccc1-c1cc(CC(=O)O)ccc1OC` (stereo not shown) [Compound 1-22, {2′-[1-(Acetyl-ethyl-amino)-ethyl]-6-methoxy-4′-trifluoromethyl-biphenyl-3-yl}-acetic acid], the IC50 at human DP2 receptor and at human DP1 receptor was 1000 to 30000 nM throughout.

For the molecule `COc1ccc(CC(=O)O)cc1-c1ccc(C(=O)O)cc1CN(CC(F)(F)F)C(C)=O` [Compound 1-37, 2-{[Acetyl-(2,2,2-trifluoro-ethyl)-amino]-methyl}-5′-carboxymethyl-2′-methoxy-biphenyl-4-carboxylic acid], the IC50 on human DP2 receptor and on human DP1 receptor was 1000 to 30000 nM throughout.

For the molecule `O=C(O)Cc1ccc(F)c(-c2ccc(C(F)(F)F)cc2CN(CC(F)(F)F)C(=O)OCc2ccccc2)c1` [Compound 1-49, (2′-{[Benzyloxycarbonyl-(2,2,2-trifluoro-ethyl)-amino]-methyl}-6-fluoro-4′-trifluoromethyl-biphenyl-3-yl)-acetic acid], the IC50 at human DP2 receptor and on human DP1 receptor was 1000 to 30000 nM each time.

With `CCN(Cc1cc(C(F)(F)F)ccc1-c1cc(C(F)(F)C(=O)O)ccc1OC)C(C)=O` [Compound 1-91, {2′-[(Acetyl-ethyl-amino)-methyl]-6-methoxy-4′-trifluoromethyl-biphenyl-3-yl}-difluoro-acetic acid], the IC50 at human DP2 receptor and at human DP1 receptor was 1000 to 30000 nM each time.

On to `COc1ccc(CC(=O)O)cc1-c1ccc(C(F)(F)F)cc1CN(CCc1ccccc1)S(C)(=O)=O` [Compound 1-101, {2′-[(Methanesulfonyl-phenethyl-amino)-methyl]-6-methoxy-4′-trifluoromethyl-biphenyl-3-yl}-acetic acid], for which the IC50 at human DP2 receptor and at human DP1 receptor was 1000 to 30000 nM throughout.

As to `COc1ccc(CC(=O)O)cc1-c1ccc(C(F)(F)F)cc1CN(C(C)=O)[C@@H](C)[C@H](O)c1ccccc1` [Compound 1-104, (2′-{[Acetyl-((1S,2R)-2-hydroxy-1-methyl-2-phenyl-ethyl)-amino]-methyl}-6-methoxy-4′-trifluoromethyl-biphenyl-3-yl)-acetic acid], the IC50 on human DP2 receptor and at human DP1 receptor was 1000 to 30000 nM each time.

Turning to `CCN(Cc1cc(C(F)(F)F)ccc1-c1cc(C(C)(C)C(=O)O)ccc1OC)C(C)=O` [Compound 1-115, 2-{2′-[(Acetyl-ethyl-amino)-methyl]-6-methoxy-4′-trifluoromethyl-biphenyl-3-yl}-2-methyl-propionic acid], the IC50 on human DP2 receptor was more than 30000 nM; at human DP1 receptor, 1000 to 30000 nM.

In the case of `CCN(Cc1cc(C(F)(F)F)ccc1-c1cc(C(C)(C)C(=O)O)ccc1OC)C(=O)OCc1ccccc1` [Compound 1-116, 2-{2′-[(Benzyloxycarbonyl-ethyl-amino)-methyl]-6-methoxy-4′-trifluoromethyl-biphenyl-3-yl}-2-methyl-propionic acid], the IC50 on human DP2 receptor lay in the range of 300 to 1000 nM; on human DP1 receptor, 1000 to 30000 nM.

In the case of `CCN(Cc1cc(C(F)(F)F)ccc1-c1ccc(C(F)(F)F)c(CC(=O)O)c1)C(=O)OCc1ccccc1` [Compound 1-124, {2′-[(Benzyloxycarbonyl-ethyl-amino)-methyl]-4,4′-bis-trifluoromethyl-biphenyl-3-yl}-acetic acid], the IC50 at human DP2 receptor and on human DP1 receptor was 300 to 1000 nM in each case.

With `CCN(Cc1cc(C(F)(F)F)ccc1-c1cc(C(F)(F)C(=O)O)ccc1OC)C(=O)OCc1ccccc1` [Compound 1-132, {2′-[(Benzyloxycarbonyl-ethyl-amino)-methyl]-6-methoxy-4′-trifluoromethyl-biphenyl-3-yl}-difluoro-acetic acid], the IC50 at human DP2 receptor and at human DP1 receptor was 1000 to 30000 nM each time.

For `CCN(Cc1cc(C(F)(F)F)ccc1-c1cc(Cl)cc(CC(=O)O)c1)C(=O)C1CC1` [Compound 1-135, {5-Chloro-2′-[(cyclopropanecarbonyl-ethyl-amino)-methyl]-4′-trifluoromethyl-biphenyl-3-yl}-acetic acid], the IC50 is less than 300 nM on human DP2 receptor and 1000 to 30000 nM at human DP1 receptor.

Turning to `CCN(Cc1cc(C(F)(F)F)ccc1-c1cc(Cl)cc(CC(=O)O)c1)C(C)=O` [Compound 1-137, {2′-[(Acetyl-ethyl-amino)-methyl]-5-chloro-4′-trifluoromethyl-biphenyl-3-yl}-acetic acid], the IC50 was less than 300 nM at human DP2 receptor and 1000 to 30000 nM at human DP1 receptor.

With `CCN(Cc1cc(C(F)(F)F)ccc1-c1cc(CC(=O)O)cc(C(F)(F)F)c1)C(C)=O` [Compound 1-138, {2′-[(Acetyl-ethyl-amino)-methyl]-5,4′-bis-trifluoromethyl-biphenyl-3-yl}-acetic acid], the IC50 at human DP2 receptor is less than 300 nM; at human DP1 receptor it was 1000 to 30000 nM.

As for `CCN(Cc1cc(C(F)(F)F)ccc1-c1cc(CC(=O)O)ccc1OC)C(=O)NCc1ccccn1` [Compound 1-139, [2′-(1-Ethyl-3-pyridin-2-ylmethyl-ureidomethyl)-6-methoxy-4′-trifluoromethyl-biphenyl-3-yl]-acetic acid], the IC50 on human DP2 receptor was less than 300 nM; on human DP1 receptor it was 1000 to 30000 nM.

`CCN(Cc1cc(C(F)(F)F)ccc1-c1cc(CC(=O)O)ccc1OC)C(=O)NCc1ccc(Cl)cc1` [Compound 1-140, {2′-[3-(4-Chloro-benzyl)-1-ethyl-ureidomethyl]-6-methoxy-4′-trifluoromethyl-biphenyl-3-yl}-acetic acid]: the IC50 is less than 300 nM on human DP2 receptor and 1000 to 30000 nM at human DP1 receptor.

Take `CCN(Cc1cc(C(F)(F)F)ccc1-c1cc(CC(=O)O)ccc1-c1ccccc1)C(=O)OCc1ccccc1` [Compound 1-144, {2″-[(Benzyloxycarbonyl-ethyl-amino)-methyl]-4″-trifluoromethyl-[1,1′;2′,1″]terphenyl-4′-yl}-acetic acid]: the IC50 at human DP2 receptor is less than 300 nM; at human DP1 receptor, 300 to 1000 nM.

With `CCCN/C(=N\C#N)N(CC)Cc1cc(C(F)(F)F)ccc1-c1cc(CC(=O)O)ccc1OC` [Compound 1-145, [2′-(N′-Cyano-N-ethyl-N″-propyl-guanidinomethyl)-6-methoxy-4′-trifluoromethyl-biphenyl-3-yl]-acetic acid], the IC50 at human DP2 receptor was less than 300 nM; at human DP1 receptor, 1000 to 30000 nM.

In the case of `CCN(Cc1cc(C(F)(F)F)ccc1-c1cc(CC(=O)O)ccc1OC)/C(=N/C#N)NCC1CC1` [Compound 1-146, [2′-(N′-Cyano-N″-cyclopropylmethyl-N-ethyl-guanidinomethyl)-6-methoxy-4′-trifluoromethyl-biphenyl-3-yl]-acetic acid], the values for the IC50 at human DP2 receptor and on human DP1 receptor were less than 300 nM and 1000 to 30000 nM, respectively.

In the case of `CCN(Cc1cc(C(F)(F)F)ccc1-c1cc(CC(=O)O)ccc1OC)/C(=N/C#N)NCc1ccccn1` [Compound 1-147, [2′-(N′-Cyano-N-ethyl-N″-pyridin-2-ylmethyl-guanidinomethyl)-6-methoxy-4′-trifluoromethyl-biphenyl-3-yl]-acetic acid], the results for the IC50 at human DP2 receptor and on human DP1 receptor were less than 300 nM and 1000 to 30000 nM, respectively.

Consider `O=C(O)CCn1c2c(c3ccccc31)C[C@H](NS(=O)(=O)c1ccc(F)cc1)CC2` [Ramatroban, reference compound], for which the IC50 at human DP1 receptor lay within 1000 to 30000 nM.
